Like-named read-outs stand apart in the source and are kept apart here.
What was measured:
[1] = test system: T-Rex 293 cell line SC3 cells having increased expression of androgen receptor protein due to exposure to doxycycline; assay: Cellular growth inhibition assay, T-Rex 293 SC3 cells with doxycycline (CellTiter-Glo, 72 hours); format: cell-based; details: T-Rex 293 SC3 cells with increased androgen receptor expression due to doxycycline (10 ng/mL)
Method in brief: (§1)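 Growth inhibition is measured in an inducible AR-expressing T-Rex 293 clone, SC3, cultured with or without 10 ng/mL doxycycline in hormone-depleted medium. Test compounds are applied for 72 hours. GI50 values derive from CellTiter-Glo 2.0 signal fitted by four-parameter regression.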

[2] = test system: T-Rex 293 cell line SC3 cells lacking increased expression of androgen receptor protein; assay: Cellular growth inhibition assay, T-Rex 293 SC3 cells without doxycycline (CellTiter-Glo, 72 hours); format: cell-based; details: T-Rex 293 cell line SC3 cells not exposed to doxycycline (lacking increased androgen receptor expression)
Method in brief: as §1

VCaP cells = assay: Cellular growth inhibition assay for VCaP cells (CellTiter-Glo, 72 hours); format: cell-based, human
Method in brief: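 Luminescent viability signal after 72 h of compound exposure gave GI50 values by four-parameter nonlinear regression. Compounds were added in 0.5% DMSO to cells plated 24 h earlier at 5000/well in DMEM containing 10% FBS.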

## Cc1sc2c(c1C)C(c1ccc(N3CCC4CN(c5ccc(C(=O)N[C@H]6CC[C@H](Oc7ccc(C#N)c(Cl)c7)CC6)nn5)CCC4C3)cc1)=NC1(CC1)c1nnc(C)n1-2 (stereo partly drawn) [I-549]
[1]; 72 h
  GI50: < 500 nM
[2]
  GI50: < 500 nM
VCaP cells
  GI50: > 3000 nM

## Cc1sc2c(c1C)C(c1ccc(OCC3CC4(CCCN(c5ccc(C(=O)N[C@H]6CC[C@H](Oc7ccc(C#N)c(Cl)c7)CC6)nn5)C4)C3)nc1)=NC1(CC1)c1nnc(C)n1-2 (stereo partly drawn) [I-486]
[1]; 72 h
  GI50: < 500 nM
[2]; 72 h
  GI50: > 3000 nM
VCaP cells; Homo sapiens, VCaP, 72 h
  GI50: < 500 nM

## CCNC(=O)C[C@@H]1N=C(c2cccc(OCCOCCOCCOC3CCN(c4ncc(C(=O)N[C@H]5CC[C@H](Oc6ccc(C#N)c(Cl)c6)CC5)cn4)CC3)c2)c2c(sc(C)c2C)-n2c(C)nnc21 [I-11]
[1]; 72 h
  GI50: < 500 nM
[2]; 72 h
  GI50: > 3000 nM
VCaP cells; Homo sapiens, VCaP, 72 h
  GI50: 500 to 1500 nM

## Cc1sc2c(c1C)C(c1ccc(CC3CC4(CCN(c5ccc(C(=O)N[C@H]6CC[C@H](Oc7ccc(C#N)c(Cl)c7)CC6)nn5)CC4)C3)cc1)=NC(C(F)(F)F)c1nnc(C)n1-2 (stereo partly drawn) [I-729]
[1]
  GI50: < 500 nM
[2]
  GI50: > 3000 nM
VCaP cells
  GI50: < 500 nM

## Cc1sc2c(c1C)C(c1ccccc1OCC1CCN(c3ccc(C(=O)N[C@H]4CC[C@H](Oc5ccc(C#N)c(Cl)c5)CC4)nn3)CC1)=N[C@@H](C)c1nnc(C)n1-2 [I-650]
[1]
  GI50: < 500 nM
[2]
  GI50: > 3000 nM
VCaP cells
  GI50: 1500 to 3000 nM

## Cc1sc2c(c1C)C(c1ccc(OCC3CC4(CCCN(c5ccc(C(=O)N[C@H]6CC[C@H](Oc7ccc(C#N)c(Cl)c7)CC6)nn5)C4)C3)cc1)=NCc1nnc(C)n1-2 (stereo partly drawn) [I-475]
[1]; 72 h
  GI50: < 500 nM
[2]
  GI50: > 3000 nM
VCaP cells
  GI50: < 500 nM

## CC[C@@H]1N=C(c2ccc(N3CC4(CC(Cc5ccc(C(=O)N[C@H]6CC[C@H](Oc7ccc(C#N)c(Cl)c7)CC6)nn5)C4)C3)cc2)c2c(sc(C)c2C)-n2c(C)nnc21 [I-610]
[1]; 72 h
  GI50: < 500 nM
[2]; 72 h
  GI50: > 3000 nM
VCaP cells; Homo sapiens, VCaP, 72 h
  GI50: 500 to 1500 nM

## Cc1sc2c(c1C)C(c1cccc(OC3CC4(CCCN(c5ccc(C(=O)N[C@H]6CC[C@H](Oc7ccc(C#N)c(Cl)c7)CC6)nn5)C4)C3)c1)=N[C@@H](C)c1nnc(C)n1-2 (stereo partly drawn) [I-686]
[1]; 72 h
  GI50: < 500 nM
[2]
  GI50: > 3000 nM
VCaP cells; Homo sapiens, VCaP, 72 h
  GI50: < 500 nM

## Cc1sc2c(c1C)C(c1ccc(N3C[C@@H]4CN(c5ccc(C(=O)N[C@H]6CC[C@H](Oc7ccc(C#N)c(Cl)c7)CC6)nn5)C[C@H]4C3)cc1)=NC1(CC1)c1nnc(C)n1-2 [I-664]
[1]; 72 h
  GI50: < 500 nM
[2]; 72 h
  GI50: < 500 nM
VCaP cells; Homo sapiens, VCaP, 72 h
  GI50: < 500 nM

## Cc1sc2c(c1C)C(c1ccc(N3CCC4(CCCN(c5ccc(C(=O)N[C@H]6CC[C@H](Oc7ccc(C#N)c(Cl)c7)CC6)nn5)C4)CC3)nc1)=NC1(CC1)c1nnc(C)n1-2 [I-448]
[1]; 72 h
  GI50: < 500 nM
[2]; 72 h
  GI50: > 3000 nM
VCaP cells; Homo sapiens, VCaP, 72 h
  GI50: 1500 to 3000 nM

## Cc1sc2c(c1C)C(c1cccc(CN3CCC4(CC3)CCN(c3ccc(C(=O)N[C@H]5CC[C@H](Oc6ccc(C#N)c(Cl)c6)CC5)nn3)C4)c1)=N[C@@H](C)c1nnc(C)n1-2 [I-688]
[1]; 72 h
  GI50: < 500 nM
[2]; 72 h
  GI50: 500 to 1500 nM
VCaP cells; Homo sapiens, VCaP, 72 h
  GI50: < 500 nM

## Cc1sc2c(c1C)C(c1ccccc1CC1CC3(CCN(c4ccc(C(=O)NC5CCC(Oc6ccc(C#N)c(Cl)c6)CC5)nn4)CC3)C1)=N[C@@H](C)c1nnc(C)n1-2 (stereo partly drawn) [I-690]
[1]; 72 h
  GI50: > 3000 nM
[2]; 72 h
  GI50: > 3000 nM
VCaP cells; Homo sapiens, VCaP, 72 h
  GI50: < 500 nM

## CC[C@@H]1N=C(c2ccc(C3CCC4(CC3)CCN(c3ccc(C(=O)N[C@H]5CC[C@H](Oc6ccc(C#N)c(Cl)c6)CC5)nn3)C4)cc2)c2c(sc(C)c2C)-n2c(C)nnc21 (single isomer, unassigned) [I-633]
[1]
  GI50: < 500 nM
[2]
  GI50: < 500 nM
VCaP cells
  GI50: 1500 to 3000 nM

## Cc1sc2c(c1C)C(c1ccc(C#CC3CC4(CCCN(c5ccc(C(=O)N[C@H]6CC[C@H](Oc7ccc(C#N)c(Cl)c7)CC6)nn5)C4)C3)cn1)=NC(C)c1nnc(C)n1-2 (stereo partly drawn) [I-456]
[1]
  GI50: < 500 nM
[2]
  GI50: 500 to 1500 nM
VCaP cells
  GI50: 500 to 1500 nM

## Cc1sc2c(c1C)C(c1ccc(NCC3CC4(C3)CN(c3ncc(C(=O)N[C@H]5CC[C@H](Oc6ccc(C#N)c(Cl)c6)CC5)cn3)C4)cc1)=NC(Cc1ncco1)c1nnc(C)n1-2 (stereo partly drawn) [I-808]
[1]; 72 h
  GI50: < 500 nM
[2]; 72 h
  GI50: > 3000 nM
VCaP cells; Homo sapiens, VCaP, 72 h
  GI50: 500 to 1500 nM

## Cc1sc2c(c1C)C(c1ccc(CC3CCC4(CCCN(c5ccc(C(=O)N[C@H]6CC[C@H](Oc7ccc(C#N)c(Cl)c7)CC6)nn5)C4)C3)cn1)=N[C@@H](C)c1nnc(C)n1-2 (stereo partly drawn) [I-635]
[1]
  GI50: < 500 nM
[2]
  GI50: < 500 nM
VCaP cells
  GI50: < 500 nM

— patent US20260109707A1, “HETEROBIFUNCTIONAL COMPOUNDS AND METHODS OF TREATING DISEASE” (Halda Therapeutics OpCo. Inc., priority 2022, published 2026)
